Assay [1] relates to diabetic mice (STZ). The experiment in a line: Sirius Red/Fast Green staining of tubular-interstitial fibrosis in kidney. Format: in vivo, mice (DBA/2J). As to the method:
Tissue samples were obtained from kidneys of DBA/2J mice following sacrifice. Tissue was fixed in 4% formaldehyde. Following dewaxing and hydration, sections were incubated with Bouin's solution overnight at ambient temperature. Sections were then rinsed using running tap water to remove all the fixative residues and incubated 1 h at ambient temperature with the Sirius Red/Fast Green dye combination 1:1.
The animal model employed is the murine model DBA/2J. 8-weeks-old mice received daily intraperitoneal injections for five consecutive days of either sodium citrate (females, control group) or streptozotocin (STZ, 45 mg/kg, pH4.5, dissolved in sodium citrate) for the study group (males). Only those animals showing a blood glucose level above 250 mg/dl were included in this study. Five weeks following the last STZ injection, animals were treated with NSC697923 dissolved in PBS (3 mg/kg, 3 times a week for 6 weeks) and/or RAMIPRIL (2 mg/kg, 3 times a week for 6 weeks) dissolved in DMSO 2% either alone or in combination [NSC697923 (3 mg/kg)+RAMIPRIL (2 mg/kg) 3 times a week for 6 weeks]. […]
(§1) Lysine 63 ubiquitinated proteins accumulation has been evaluated by immunohistochemistry on renal tissues from the mice model of diabetic nephropathy (DBA/2J mice+streptozotocin-STZ); the degree of fibrosis in these samples has been evaluated by Sirius Red Fast Green staining.

In assay [2] the test system is Lysine 63 ubiquitinated proteins in HK2 cells. The experiment in a line: Immunofluorescence/confocal microscopy of lysine 63 ubiquitinated proteins in HK2 cells under high glucose. The assay is classed as cell-based, human. The following applies: high glucose 30 mM, NSC697923 1 μM. As to the method:
(§2) HK2 cells, a line of Renal Proximal Tubule Epithelial Cells (PTEC) obtained from a human control kidney, were purchased from the American Type Culture Collection (ATCC, Rockville, MD). Cells were cultured in DMEM growth medium low glucose (5.5 mM) with the addition of 10% fetal bovine serum (FBS), 1% Penicillin and Streptomycin and 1% L-Glutamine (Sigma-Aldrich, Munich, Germany). Prior to each passage, cells reaching confluence were rinsed with phosphate-buffered saline (PBS), trypsinized with Trypsin 0.05% and Ethylenediaminetetraacetic acid (EDTA) 0.02% in PBS and seeded in complete growth medium with or without the addition of D-Glucose 24.5 mM (final concentration in hyperglycemia HG=30 mM) or L-Glucose 24.5 mM as osmolarity control, for each predetermined time point. Cells were then incubated at 37° C. in 5% CO2.
(§3) The cellular distribution of the proteins showing lysine63-linked ubiquitylation and the expression of the mesenchymal marker α-sma was evaluated in HK2 cells through indirect immunofluorescence and confocal microscopy analysis following incubation with specific antibodies. For each condition, 150.000 cells were plated on sterile glass slides and then incubated with D- or L-Glucose 30 mM for the indicated time point. In some predetermined conditions, the specific inhibitor of Lysine63-linked ubiquitylation, NSC697923, was pre-incubated at a 1 μM final concentration, 1 h prior to the addition of glucose and/or the ACE-inhibitor Ramipril at a final concentration of 10 μM and/or the SGLT2 inhibitor Empaglifozin at a 500 nM final concentration. Following stimulation, HK2 were fixed 15 min in paraformaldehyde 4%, treated 5 min with Triton-X 100 0.1% in PBS, and incubated 1 h in blocking buffer (goat serum 4%+BSA 2%). Cells were then incubated 1 h with the specific antibodies against α-sma and lysine63 ubiquitin diluted in blocking buffer. The antigen-antibody complex was then identified using a secondary fluorescent antibody (specifically Alexa Fluor 555 goat anti-rabbit and Alexa Fluor 488 goat anti-mouse). Prior to the incubation with the secondary antibody, cells were rinsed three times in PBS. Cells nuclei were then stained using TO-PRO-3 diluted in PBS and slides were mounted. The negative control was obtained incubating cells in blocking without the addition of the primary antibody. The fluorescence signal was then acquired using the Leica TCS SP2 confocal microscope and images were saved at a 63× zoom using the microscope software. Signal was finally quantified measuring the area % of fluorescent signal compared to the background.

The subject of assay [3] is α-sma expression in HK2 cells. The experiment in a line: Immunofluorescence/confocal microscopy of α-sma in HK2 cells under high glucose. The note with it: NSC697923 1 μM. Format: cell-based, human. As to the method:
as §2, §3

Assay [4] relates to diabetic mice (STZ). The experiment in a line: Urinary albumin analysis (Mouse Albumin ELISA Kit) in 24 h urine. The assay is classed as in vivo, mice (DBA/2J). The note with it: for ug urine albumin 24 h: 24 h urine. As to the method:
(§4) The animal model employed is the murine model DBA/2J. 8-weeks-old mice received daily intraperitoneal injections for five consecutive days of either sodium citrate (females, control group) or streptozotocin (STZ, 45 mg/kg, pH4.5, dissolved in sodium citrate) for the study group (males). Only those animals showing a blood glucose level above 250 mg/dl were included in this study. Five weeks following the last STZ injection, animals were treated with NSC697923 dissolved in PBS (3 mg/kg, 3 times a week for 6 weeks) and/or RAMIPRIL (2 mg/kg, 3 times a week for 6 weeks) dissolved in DMSO 2% either alone or in combination [NSC697923 (3 mg/kg)+RAMIPRIL (2 mg/kg) 3 times a week for 6 weeks]. Serum and 24 h urine samples were collected at the end of the treatment. Kidney samples were collected at sacrifice and immediately fixed in formalin and embedded in paraffin.
Urinary albumin concentration was measured in the urine of these animals using the commercially available Mouse Albumin ELISA Kit (Abcam). The urinary albumin values were normalized to the total urinary protein content compared to the total volume of urines produced during the 24 h before sacrifice.
In general terms: In an ELISA, binding on a coated surface is turned into a signal by an enzyme label.

For assay [5], the system named is α-sma expression in HK2 cells. The experiment in a line: Western blotting of α-sma in HK2 cells under high glucose. Format: cell-based, human. The following applies: Example 3, FIG. 3, high glucose 30 mM, NSC697923 1 μM, Ramipril 10 μM. As to the method:
as §2
Cells were plated in six-well plates and incubated to reach confluence. Cells were then exposed to either D- or L-Glucose at a concentration of 30 mM for the indicated time point. […]
By western blotting on cultured immortalized renal tubular cells (HK2) we evaluated the protein expression levels of α-sma, a marker of epithelial-to-mesenchymal transition.
In general terms: A western blot detects proteins with antibodies after separation by electrophoresis.

Assay [6] concerns immortalized human renal tubular cells HK2. The following applies: in vitro cellular model of HK2 cells; Pontrelli et al. FASEB J 2017; cited from earlier work.
Assay [7] is described as follows: Clinical data of DBA/2J mice (controls and STZ diabetic): body weight, kidney weight, blood glucose, urinary volume. The following applies: for Kidney Weight: in g (unit assumed). The arrangement: Blood glucose at sacrifice: unit: mg/dl. Format: in vivo, mice (DBA/2J). As to the method: as §4, with “RAMIPRIL” left out, “mg/kg)+[…]” for “mg/kg)+RAMIPRIL”
Assay [8] has as its system Lysine 63 ubiquitinated proteins (Lys63-Ub). The experiment in a line: Immunohistochemistry of lysine 63 ubiquitinated proteins on renal tissue. Format: in vivo, mice (DBA/2J). The note with it: diabetic mice (STZ). As to the method:
Tissue samples were obtained from kidney of DBA/2J mice. Following sacrifice, tissues were fixed in 4% formaldehyde. In order to evaluate the accumulation of proteins undergoing Lysisine63-linked ubiquitylation through immunohistochemistry, dewaxed and unmasked sections were incubated 10 min in H2O2 and 5 min in Triton 0.25% at ambient temperature. Sections were then blocked 10 min with Protein block (Dako, Glostrup, Denmark) and then incubated 1 h with the specific antibody against and lysine63-linked ubiquitylation. […] Sections were stained with hematoxylin and slides were mounted with glycerol. The negative control sample lacks the primary antibody incubation step. The signal is then quantified using the Positive Pixel Count v9_v10.0.0.1805 algorithm (Aperio Technologies) that measures the number of […].
The animal model employed is the murine model DBA/2J. […]
as §1

Where [9] appears, read: Example 6, FIG. 6, compared to untreated diabetic mice or mice treated with ACE inhibitors alone.
Setting [10] is: Example 4, FIG. 4b, Ramipril 10 μM.
[11] abbreviates: Example 8, FIG. 8b, Empaglifozin 500 nM.
Setting [12] is: Example 8, FIG. 8a, high glucose 30 mM, Empaglifozin 500 nM.
The mark [13] stands for this setting: Table 1, diabetic (STZ) DBA/2J mice, NSC697923 3 mg/kg 3 times a week for 6 weeks.
[14] abbreviates: Table 2, diabetic (STZ) DBA/2J mice, NSC697923 3 mg/kg and/or Ramipril 2 mg/kg 3 times a week for 6 weeks.
[15] abbreviates: Table 1, non-diabetic DBA/2J mice, NSC697923 3 mg/kg 3 times a week for 6 weeks.
[16] abbreviates: Table 2, non-diabetic DBA/2J mice, NSC697923 3 mg/kg and/or Ramipril 2 mg/kg 3 times a week for 6 weeks.

“Also recorded” adds a separate entry of the source.

On to `Cc1ccc(S(=O)(=O)c2ccc([N+](=O)[O-])o2)cc1` [NSC697923, 2-(4-methylphenyl)sulfonyl-5-nitrofuran], for which, in the assay on diabetic mice (STZ) [1] (Example 1, FIGS. 1 and 2, NSC697923 3 mg/kg 3 times a week for 6 weeks, vs untreated STZ, 3 mg/kg), the “degree of tubular-interstitial fibrosis (Sirius Red Fast Green)” value was “significantly reduces; also recorded: capable of reducing”. The “degree of fibrosis (Sirius Red Fast Green)” value in the assay with diabetic mice (STZ) [1] (setting [9]) is “significant reduction”. The “accumulation of lysine 63 ubiquitinated proteins (confocal microscopy)” value (from here on “accumulation … (confocal microscopy)”) in assay [2] (setting [10]) and in assay [2] (setting [11]) was “reduces both processes” throughout. Moreover, the “α-sma expression (confocal microscopy)” value is on record as “reduces both processes” in assay [3] (setting [12]); “reduces both processes; also recorded: able to inhibit” in assay [3] (Examples 4 and 5, FIGS. 4a and 5, high glucose 30 mM, Ramipril 10 μM). Moreover, in the assay with diabetic mice (STZ) [4] (Example 2, first group of animals, treated diabetic mice (STZ+NSC697923) compared to untreated diabetic mice (STZ)), the “effect on urinary albuminuria” value was “has no effect; also recorded: not able to reduce”. Also, the figures for the “ug urine albumin 24 h” value in the assay with diabetic mice (STZ) [4] (setting [13]) and with diabetic mice (STZ) [4] (setting [14]) were 724.25 ± 690.89 µg and 439.29 ± 211.2 µg, respectively. Further, the “α-sma expression (western blotting, normalized to actin)” value in assay [5] is “reduced”. Further, the “epithelial to mesenchymal transition” value in assay [6] was “blocks”. The “Blood glucose at sacrifice” value is listed as 540.5 ± 33.05 in assay [7] (setting [13]), 118.8 ± 10.44 in assay [7] (setting [15]) and 594.28 ± 7.95 in assay [7] (setting [14]). The “Urinary Volume (mL/24 h)” value came to 25.83 ± 12.58 mL/24 h in assay [7] (setting [13]), 0.33 ± 0.17 mL/24 h in assay [7] (setting [15]) and 24.85 ± 7.78 mL/24 h in assay [7] (setting [14]). Also, the “Kidney Weight” value in assay [7] (setting [13]) is 0.33 ± 0.079; in assay [7] (setting [15]), 0.24 ± 0.018; in assay [7] (setting [14]) it was 0.38 ± 0.05. Also, the “accumulation of lysine 63 ubiquitinated proteins in kidney” value in assay [8] (Example 1, FIG. 1, NSC697923 3 mg/kg 3 times a week for 6 weeks, vs untreated STZ) is “significantly reduces”; in assay [8] (setting [9]), “significant reduction”.
As for `CCOC(=O)[C@H](CCc1ccccc1)N[C@@H](C)C(=O)N1[C@H](C(=O)O)C[C@@H]2CCC[C@@H]21` [RAMIPRIL, Ramipril], in assay [2] (setting [10]), the “accumulation … (confocal microscopy)” value is recorded as “do not reduce”. Besides, the “α-sma expression (confocal microscopy)” value in assay [3] (Examples 4 and 5, FIGS. 4a and 5, high glucose 30 mM, Ramipril 10 μM, listed as ACE inhibitors) is “do not block; also recorded: do not reduce”. Further, the “ug urine albumin 24 h” value in the assay with diabetic mice (STZ) [4] (setting [14]) was 388.79 ± 79.78 µg. For the same molecule, in the assay with diabetic mice (STZ) [4] (setting [16]), the “ug urine albumin 24 h” value is 128.54 ± 55.94 µg. The “α-sma expression (western blotting, normalized to actin)” value in assay [5] was “have no effect”. In addition, in assay [7] (setting [14]), the “Blood glucose at sacrifice” value turned out to be 555.71 ± 71.48, the “Urinary Volume (mL/24 h)” value is 29.64 ± 9.51 mL/24 h and the “Kidney Weight” value worked out at 0.37 ± 0.054. For the same molecule, in assay [7] (setting [16]), the “Blood glucose at sacrifice” value is 112 ± 9.14 and the “Kidney Weight” value was found to be 0.242 ± 0.027.
For `OC[C@H]1O[C@@H](c2ccc(Cl)c(Cc3ccc(O[C@H]4CCOC4)cc3)c2)[C@H](O)[C@@H](O)[C@@H]1O` [SGLT2 receptor inhibitors, Empaglifozin], the “accumulation … (confocal microscopy)” value in assay [2] (setting [11]) is on record as “do not reduce”. Also, in assay [3] (setting [12]), the “α-sma expression (confocal microscopy)” value is on record as “partially reduce”.

The record behind these values is US12036201B2, “Combination of a ubiquitin-conjugating enzyme complex inhibitor and antihypertensive and/or hypoglycemic drugs in diabetic kidney disease” (UNIVERSITÀ DEGLI STUDI DI BARI ALDO MORO, priority 2018, dated 2024).
